Data reported in the supplement of paper PMC5908809.

Experiments:
[1] = tested on: YT (IL-2 2.5 ng/mL); assay: drug sensitivity score (DSS) (DSS units); higher = more sensitive; extreme values may be limits of the assay; details: 72 h
[2] = tested on: normal primary NK cells, pool 1 (3 donors) (IL-2 2.5 ng/mL); assay: as above; details: 72 h
[3] = tested on: DERL-7 (IL-2 2.5 ng/mL); assay: as above; details: 72 h
[4] = tested on: normal primary NK cells, pool 3 (3 donors) (IL-2 2.5 ng/mL); assay: as above; details: 72 h
[5] = tested on: IMC-1 (IL-2 20 ng/mL); assay: as above; details: 72 h
[6] = tested on: normal primary NK cells, pool 2 (3 donors) (IL-2 2.5 ng/mL); assay: as above; details: 72 h
[7] = tested on: KAI3 (IL-2 2.5 ng/mL); assay: as above; details: 72 h
[8] = tested on: NK-92 (IL-2 2.5 ng/mL); assay: as above; details: 72 h
[9] = tested on: NKL (IL-2 2.5 ng/mL); assay: as above; details: 72 h
[10] = tested on: normal primary NK cells, pool 1 (3 donors), resting (IL-2 0 ng/mL); assay: as above; details: 72 h
[11] = tested on: SNK-6 (IL-2 2.5 ng/mL); assay: as above; details: 72 h
[12] = tested on: KHYG-1 (IL-2 2.5 ng/mL); assay: as above; details: 72 h
[13] = tested on: NK-YS (IL-2 2.5 ng/mL); assay: as above; details: 72 h
[14] = tested on: YT (IL-2 2.5 ng/mL); assay: percent inhibition of viability; higher = more inhibition; details: 72 h
[15] = tested on: normal primary NK cells, pool 1 (3 donors) (IL-2 2.5 ng/mL); assay: as above; details: 72 h
[16] = tested on: DERL-7 (IL-2 2.5 ng/mL); assay: as above; details: 72 h
[17] = tested on: normal primary NK cells, pool 3 (3 donors) (IL-2 2.5 ng/mL); assay: as above; details: 72 h
[18] = tested on: IMC-1 (IL-2 20 ng/mL); assay: as above; details: 72 h
[19] = tested on: normal primary NK cells, pool 2 (3 donors) (IL-2 2.5 ng/mL); assay: as above; details: 72 h
[20] = tested on: KAI3 (IL-2 2.5 ng/mL); assay: as above; details: 72 h
[21] = tested on: NK-92 (IL-2 2.5 ng/mL); assay: as above; details: 72 h
[22] = tested on: NKL (IL-2 2.5 ng/mL); assay: as above; details: 72 h
[23] = tested on: normal primary NK cells, pool 1 (3 donors), resting (IL-2 0 ng/mL); assay: as above; details: 72 h
[24] = tested on: SNK-6 (IL-2 2.5 ng/mL); assay: as above; details: 72 h
[25] = tested on: KHYG-1 (IL-2 2.5 ng/mL); assay: as above; details: 72 h
[26] = tested on: NK-YS (IL-2 2.5 ng/mL); assay: as above; details: 72 h
[27] = tested on: normal NK cells expanded with K562-aAPC; assay: as above; details: 72 h, IL-2 2.5 ng/mL
Protocol: (§1)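 Drug sensitivity and resistance testing on K562-aAPC-expanded normal NK cells: 5 concentrations (10-fold steps over a 10,000-fold range), 72 h at 37 °C, viability by CellTiter-Glo normalised to DMSO and benzethonium chloride controls; DSS from the fitted curve.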

[28] = tested on: normal NK cells expanded with K562-aAPC; assay: drug sensitivity score (DSS) (DSS units); higher = more sensitive; extreme values may be limits of the assay; details: 72 h; IL-2 2.5 ng/mL
Protocol: as §1

C=CCn1c(=O)c2cnc(Nc3ccc(N4CCN(C)CC4)cc3)nc2n1-c1cccc(C(C)(C)O)n1 [MK1775] (max concentration tested 10000 nM)
Details	drug sensitivity score
[1]	20.4
[2]	3.64
[3]	20.4
[4]	1.01
[5]	17.1
[6]	2.29
[7]	21.8
[8]	24.3
[9]	25.5
[10]	0
[11]	21
[12]	27.1
[13]	18.8
[28]	13

percent inhibition of viability [%]
Details	1 nM	10 nM	100 nM	1000 nM	10000 nM
[14]	1.53	1.29	16.2	98.3	98.1
[15]	-14.7	-12.2	-5.81	9.3	42.5
[16]	0.66	0.03	17.1	97.5	92.2
[17]	-17.6	-4.31	-8.03	5.21	17.9
[18]	-5.81	-5.29	-4.21	96.3	99
[19]	-15.1	-7.74	-2.34	4.19	34.3
[20]	-0.83	7.57	45.7	91.1	90.4
[21]	4.45	-1.85	53.5	98.9	97.4
[22]	-16	4.83	68.4	94.3	64.4
[23]	-1.92	-3.22	7.91	4.91	-27.9
[24]	-5.66	-15.9	26.5	92.5	96.4
[25]	-2.16	1.16	78.7	102	98.7
[26]	-5.73	-7.13	10.9	92.7	94.9
[27]	-4.38	-1.43	28.4	50.9	65.7

O=S(=O)(c1cccc2cnccc12)N1CCCNCC1 [Fasudil] (max concentration tested 50000 nM)
Details	drug sensitivity score
[1]	4.32
[2]	4.47
[3]	2.67
[4]	2.91
[5]	0
[6]	6.25
[7]	5.22
[8]	5.03
[9]	1.12
[10]	0.88
[11]	0.22
[12]	2.15
[13]	0.3
[28]	1.35

percent inhibition of viability [%]
Details	5 nM	50 nM	500 nM	5000 nM	50000 nM
[14]	-0.42	-0.99	2.43	9.94	50.6
[15]	-14.3	13.1	11.4	15.1	52.8
[16]	-1.59	2.77	2.04	10.3	31.5
[17]	-8.61	9.41	3.96	-0.18	54.6
[18]	-3.69	1.08	-1.1	-3.21	-0.77
[19]	-9.61	4.29	4.21	9.95	82.7
[20]	-9.98	-12.1	-8.77	16.4	52.6
[21]	-0.3	-5	-7.96	16.5	50
[22]	-10.3	-10.6	-5.56	1.78	24
[23]	-18	5.15	-1.43	5.51	16.6
[24]	-14.4	-9.67	-10.4	-26.7	19.7
[25]	-1.86	-2.81	-0.3	5.17	30.2
[26]	-10.2	-12.7	-8.89	-1.5	17.1
[27]	-7	-8.84	-5.88	5.82	20.5

O=C(NC[C@H](O)CO)c1ccncc1Nc1ccc(I)cc1F [Pimasertib] (max concentration tested 10000 nM)
Details	drug sensitivity score
[1]	0.17
[2]	2.21
[3]	11.6
[4]	0
[5]	0
[6]	0.17
[7]	5.63
[8]	0
[9]	18.1
[10]	2.06
[11]	0
[12]	14.8
[13]	2.03
[28]	0.89

percent inhibition of viability [%]
Details	1 nM	10 nM	100 nM	1000 nM	10000 nM
[14]	0.32	1.92	-0.1	10.8	10.6
[15]	-8.76	5.99	2.83	15.8	22.1
[16]	0.5	14.9	29.4	37.8	49.7
[17]	-8.93	-10.8	-10.3	-6.25	5.59
[18]	-6.58	-3.26	-9.96	-4.58	5.6
[19]	-12.9	1.34	0.74	1.01	13.2
[20]	-9.91	7.15	14.8	26.4	27.1
[21]	6.11	-18.6	-12.1	-18.6	-16.4
[22]	-5.35	10.9	45.4	63.2	66.3
[23]	10.1	-6.83	-15.1	8.84	24.8
[24]	-12.2	-4.53	-21	-22.5	-8.46
[25]	-2.11	9.27	31.9	59.1	61.3
[26]	-5.36	-3.17	-0.42	15.1	19.9
[27]	0.25	-8.62	0.85	3.75	18

COc1cc(CCc2cc(NC(=O)c3ccc(N4CC(C)NC(C)C4)cc3)n[nH]2)cc(OC)c1 (stereo not given) [AZD4547] (max concentration tested 1000 nM)
Details	drug sensitivity score
[1]	1.18
[2]	3.07
[3]	0
[4]	0
[5]	0.05
[6]	0
[7]	2.12
[8]	0
[9]	4.12
[10]	0.81
[11]	1.27
[12]	0
[13]	0
[28]	0.21

percent inhibition of viability [%]
Details	0.1 nM	1 nM	10 nM	100 nM	1000 nM
[14]	-1.63	-5.24	0.65	14.1	7.45
[15]	0.51	14	13.1	8.85	9.5
[16]	0.65	12	4.33	3.09	5.77
[17]	-2.75	5.35	5.93	-3.36	6.54
[18]	-10.2	-0.55	2.58	3.59	11.7
[19]	-16.2	4.82	5.78	1.94	4.66
[20]	0.83	0.57	5.8	15.9	18.7
[21]	-8.61	-19.7	-10.4	1.68	9.5
[22]	-6.59	-3.17	6.86	22.1	18.6
[23]	-1.26	20.1	12.4	9.93	10.7
[24]	-8.3	-5.78	6.93	-1.06	30.7
[25]	-1.35	-9.6	-4.7	-0.32	6.6
[26]	-1.26	-3.32	-4.3	-2.46	7.41
[27]	-0.43	-4.83	-0.59	0.99	13.7

CC[C@H](C)C(=O)O[C@H]1C[C@@H](C)C=C2C=C[C@H](C)[C@H](CC[C@@H]3C[C@@H](O)CC(=O)O3)[C@H]21 [Lovastatin] (max concentration tested 10000 nM)
Details	drug sensitivity score
[1]	0.36
[2]	0
[3]	0
[4]	0
[5]	0
[6]	0
[7]	0.22
[8]	0
[9]	2.39
[10]	1.12
[11]	0
[12]	0
[13]	4.64
[28]	0

percent inhibition of viability [%]
Details	1 nM	10 nM	100 nM	1000 nM	10000 nM
[14]	1.08	0.01	-2.08	1.47	15
[15]	-9.05	-11.9	-5.92	4.69	0.82
[16]	2.67	-1.74	3.23	-2.63	7.15
[17]	-7.92	-10.5	-6.75	-10.6	-16
[18]	0.36	-4.93	-3.87	-8.19	5.39
[19]	-9.06	-2.92	-2.71	-5.88	-6.36
[20]	0.53	3.49	-3.97	0.77	14
[21]	-12	-4.31	2.92	-2.72	4.38
[22]	-8.92	-7.04	-16.3	-3.47	50.5
[23]	-2.63	-14.8	-15	10.9	16
[24]	9.2	3.13	18.8	3.99	-5.4
[25]	0.32	-1.28	-1.4	5.79	9.85
[26]	-0.66	-1.57	-0.61	9.14	57.5
[27]	0.56	-5.1	-9.52	-6.29	-8.93
